# Laboratory results as given in PubChem BioAssay (NCI).
#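 Cultured in 96-well plates, cells were exposed to test compound for 48 hours across five concentrations. GI50 = concentration required for 50% inhibition of growth. TGI denotes the concentration required for complete inhibition of growth.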
# Assays:
# Experiment in all cases: growth of human tumour cells (NCI), 48 h
# RXF 393 renal = tested on: RXF 393 renal
# CAKI-1 renal = tested on: CAKI-1 renal
# HCC-2998 colon = tested on: HCC-2998 colon
# SK-MEL-28 melanoma = tested on: SK-MEL-28 melanoma
# SNB-75 CNS = tested on: SNB-75 CNS
# UO-31 renal = tested on: UO-31 renal
# SF-268 CNS = tested on: SF-268 CNS
# OVCAR-4 ovarian = tested on: OVCAR-4 ovarian
# KM12 colon = tested on: KM12 colon
# ACHN renal = tested on: ACHN renal
SMILES,TGI (RXF 393 renal) [µM],TGI (CAKI-1 renal) [µM],TGI (HCC-2998 colon) [µM],TGI (SK-MEL-28 melanoma) [µM],TGI (SNB-75 CNS) [µM],TGI (UO-31 renal) [µM],TGI (SF-268 CNS) [µM],TGI (OVCAR-4 ovarian) [µM],TGI (KM12 colon) [µM],TGI (ACHN renal) [µM],GI50 (RXF 393 renal) [µM],GI50 (CAKI-1 renal) [µM],GI50 (HCC-2998 colon) [µM],GI50 (SK-MEL-28 melanoma) [µM],GI50 (SNB-75 CNS) [µM],GI50 (UO-31 renal) [µM],GI50 (SF-268 CNS) [µM],GI50 (ACHN renal) [µM],GI50 (KM12 colon) [µM]
C=CC[N+](CCO)(CCO)CCCCCCCCCCCCCCCCCC,5.24,17.9,10.6,28,7.55,31.4,13.3,16.4,3.58,–,–,–,–,–,–,–,–,–,–
CCOC(=O)c1cn(CC)c2cc3c(cc2c1=O)CCS3(=O)=O,> 100,–,> 100,> 100,–,> 100,> 100,–,> 100,> 100,–,–,–,–,–,–,–,–,–
Cn1cc(-c2nc(-c3c[nH]c4ccncc34)cs2)c2cc(F)ccc21,3.04,3.04,3.08,3.04,2.6,2.92,3.44,–,3.11,3.12,1.57,1.65,1.64,1.63,1.26,1.57,1.74,1.74,1.63
O=C(Cc1ccccc1)N=Nc1c(O)[nH]c2ccccc12,> 100,–,> 100,–,> 100,> 100,70.7,> 100,> 100,> 100,–,–,–,–,–,–,–,–,–
O=C(O)CN(CC(=O)O)Cc1ccn(-c2cccc(-n3ccc(CN(CC(=O)O)CC(=O)O)n3)n2)n1,> 100,> 100,> 100,> 100,> 100,> 100,> 100,–,> 100,> 100,–,–,–,–,–,–,–,–,–
O=c1oc2c/c(=C\c3ccccc3)c(=O)c3cccc1c3-2,72.6,55.8,> 100,> 100,> 100,85.5,58.7,–,56.3,> 100,–,–,–,–,–,–,–,–,–
O=C(NN1C(=O)CSC1c1ccco1)c1ccncc1 (stereo not given),> 100,> 100,> 100,> 100,–,> 100,> 100,> 100,> 100,> 100,–,–,–,–,–,–,–,–,–
CCCCCCCC(=O)OCC(C[As](=O)(O)O)OC(=O)CCCCCCC (stereo not given),18.2,–,31.7,29.3,31.1,28.2,28.7,34,–,30.6,–,–,–,–,–,–,–,–,–
CNC(=O)c1ccccc1[S+]1c2cccc3cccc(c23)C(=O)N1C (stereo not given),> 100,> 100,–,> 100,–,> 100,> 100,> 100,> 100,> 100,–,–,–,–,–,–,–,–,–
C[C@H](N)C(=O)N[C@@H]1[C@H]2C(=C(O)C[C@@H](O)[C@@H]2O)C(=O)O[C@@H]1C,> 100,> 100,> 100,> 100,> 100,> 100,> 100,> 100,> 100,–,–,–,–,–,–,–,–,–,–
Cc1c(O)c(=O)ccn1CCc1c[nH]c2ccccc12,–,7.25,–,–,–,–,8.77,–,> 100,23.5,–,–,–,–,–,–,–,–,–
CCCCNC(=S)c1ccc(OC(=O)Nc2ccc(Cl)cc2)cc1,–,> 100,> 100,> 100,–,> 100,> 100,> 100,> 100,> 100,–,–,–,–,–,–,–,–,–
N#CCOc1cccc(C2(N3CC=CCC3)CCCCC2)c1,–,> 100,–,> 100,–,> 100,> 100,> 100,> 100,> 100,–,–,–,–,–,–,–,–,–
COC(=O)c1c(O)ccc2c1c1c(n2Cc2ccccc2OC)C(=O)c2ccccc2C1,88.1,> 100,–,> 100,> 100,> 100,> 100,87.9,> 100,–,–,–,–,–,–,–,–,–,–
COc1ccc(-c2nnc(CCCCCCCCc3nnc(-c4ccc(OC)cc4)n3N)n2N)cc1,–,> 100,> 100,> 100,> 66.4,> 100,> 100,> 100,> 100,> 100,–,–,–,–,–,–,–,–,–
Cc1cc2c(cc1-c1cc3c(cc1C)C(C(C)C)=C(O)C(=O)/C3=C\Nc1c(C)n(C)n(-c3ccccc3)c1=O)/C(=C/Nc1c(C)n(C)n(-c3ccccc3)c1=O)C(=O)C(O)=C2C(C)C,> 100,> 100,–,> 100,> 100,> 100,> 100,> 100,> 100,> 100,–,–,–,–,–,–,–,–,–
Cc1nc2c(Cl)cc(Cl)cc2c(Cl)c1CCCl,79.3,> 100,> 100,> 100,> 100,> 100,> 100,–,> 100,> 100,–,–,–,–,–,–,–,–,–
CC(C)(C)OC(=O)N1Cc2cc(O)ccc2C[C@H]1C(=O)O,> 100,> 100,> 100,> 100,> 100,–,> 100,> 100,> 100,> 100,–,–,–,–,–,–,–,–,–
CC1C2CC(CC2N)C1(C)C (stereo not given),–,> 100,> 100,> 100,> 100,> 100,> 100,> 100,> 100,> 100,–,–,–,–,–,–,–,–,–
CCOC(=O)C1=CC(C)(C(=O)OCC)Nc2c(nc(SC)n(C)c2=O)N1 (stereo not given),–,> 10,> 10,> 10,> 10,> 10,> 10,> 10,> 10,> 10,–,–,–,–,–,–,–,–,–
COc1ccc(/C=N\NC(=O)Nc2cccc3ccccc23)cc1,–,35.3,> 100,> 100,34.5,> 100,> 100,43.2,> 100,66.6,–,–,–,–,–,–,–,–,–
CCCCCCCCCCCCCCCCCCOc1ccc(/C=C/C2=[N+](CCCl)CCO2)cc1,–,> 100,–,> 100,> 100,> 100,–,> 100,> 100,> 100,–,–,–,–,–,–,–,–,–
N/C(=N\N=C\c1cc2c(cc1Cl)OCO2)NO,> 100,> 100,97.8,> 100,> 100,64.2,> 100,> 100,> 100,–,–,–,–,–,–,–,–,–,–
